# Measurements reported in patent US9793566B2, “Aqueous electrolytes for redox flow battery systems” (Battelle Memorial Institute, priority 2015, dated 2017).
# Key:
# [1] = Electrolyte stability: repeated cycling overnight, cyclic voltammograms before and after; format: physicochemical; details: 300 mM DMTU, 0.45 M HCl, no significant peak changes in the cyclic voltammograms
# Source text: Cyclic voltammograms were obtained before and after the overnight test—initial E (V)=0, high E (V)=1, low E (V)=−0.8, initial P/N=P, scan rate (V/s)=0.05, segment=3, sample interval (V)=0.001, quiet time (s)=2, […].
# [2] = Cyclic voltammetry comparison of N-methyl thiourea and N,N′-dimethyl thiourea catholytes; format: physicochemical; details: 200 mM in 1 M NaCl, scan rate 0.05 V/s
# Protocol: Aqueous catholytes comprising 200 mM MTU and 200 mM DMTU were compared. Each catholyte also included 1 M NaCl. Cyclic voltammetry was performed under the following conditions: initial E (V)=0, high E (V)=1, low E (V)=−0.75, initial P/N=P, scan rate (V/s)=0.05, segment=7, sample interval (V)=0.001, quiet time (s)=2, sensitivity (A/V)=0.001.
# [3] = physchem; details: aqueous buffer
# [4] = Cyclic voltammetry, redox couple potential; format: physicochemical; details: neutral aqueous solution
# Protocol: Cyclic voltammetry was performed at 0.05 V/s with a glassy carbon working electrode.
SMILES,stability in acid solutions [1],"kinetics, reversibility and overpotential compared with MTU [2]",solubility [3] [mM],one electron redox couple [4] [V vs. SHE]
"CNC(=S)NC [DMTU, N,N′-dimethyl thiourea]",good stability,"better kinetics, with better reversibility and a lower overpotential",~4000,–
"CC1(C)CC(O)CC(C)(C)N1[O] [HTMPO, 4-hydroxy-2,2,6,6-tetramethylpiperidine 1-oxyl]",–,–,–,0.75
